According to patent publication US8846752B2, “Isoflavone fatty acid ester derivatives, preparation method and pharmaceutical uses thereof” (China Pharmaceutical University, priority 2010, dated 2014):

How the values were obtained:
[1] = tested on: high fat and high sugar model ICR mice; assay: Losing weight, depressing blood fat and regulating blood sugar balance in high fat and high sugar ICR mice; format: in vivo; design: Serum insulin concentration INS: unit not given here; settings: n = 10, x ± s; for Celiac total fat / Epididymal fat / MDA (serum oxidative damage indicator) / Mesenteric fat / Perirenal fat / SOD (serum oxidative damage indicator) / Serum insulin concentration INS / Subcutaneous fat / FFA / HDL-C / LDL-C / TC / TG: 50 mg/kg intragastric for 30 days; for Body weight 1 week after / Body weight 2 weeks after / Body weight 3 weeks after / Body weight before administration: high fat and high sugar model; for Body weight 1 week after / Body weight 2 weeks after / Body weight 3 weeks after: 50 mg/kg intragastric daily; for Body weight before administration: baseline before 50 mg/kg intragastric; for FFA / HDL-C / LDL-C / TC / TG: serum
Description: 2. Activity Determination of Losing Weight, Depressing Blood Fat and Regulating Blood Sugar Balance of ICR Mice
The experiment refers to the methods of Raquel Ferrer-Lorente et al (European Journal of Pharmacology, 2005, 513: 243-248), which are slightly modified.
Take 40 ICR mice (male, weight 13-15 g) and randomly divide them into two large groups according to their weight, a normal diet group (n=10) and a high fat and high sugar model group (n=30); give normal diet to the normal diet group and conduct subcutaneous injection of physiological saline each day; give high-fat and high-sugar diet to the high fat and high sugar model group and conduct subcutaneous injection of insulin (0.5 U/kg) each day. The food is not restricted. Measure the food regularly each day, weigh the weight once a week and feed 7 consecutive weeks.
7 weeks after modeling, the normal diet group is unchanged and the high fat and high sugar model group is divided into model control group (n=10), I-1 administration group (n=10) and I-2 administration group (n=10). The feed of each group is unchanged. The administration group is given corresponding compounds with the dose of 50 mg/kg and the blank group is given the equal volume of blank solvent. Conduct intragastric administration on each group for consecutive 30 days. Weigh 12 h after fasting after last administration, take the eyeballs for blood, prepare serum, determine the blood fat (triglyceride TG, free fatty acid FFA, total cholesterol TC, low density lipoprotein cholesterol LDL-C and high density lipoprotein cholesterol HDL-C) content and blood insulin content and detect the oxidative damage indicators in the blood (malondialdehyde MAD and superoxide dismutase SOD). Take off the cervical vertebrae to kill the rats, separate the perirenal, testicular, mesenteric and inguinal (subcutaneous) white adipose tissue, wash clean with cold physiological saline and dry with filter paper, and then weigh.

3T3-L1 cells [2] = assay: Oil red staining colorimetric experiment (preadipocyte differentiation); format: cell-based; settings: 8th day of differentiation, 2nd day of administration; FIG. 2 and FIG. 3
Protocol: 4.1.2 Oil Red Staining Colorimetric Experiment
4.1.2.1 Culture 3T3-L1 cells in conventional medium and replace with differential medium I (DMEM culture solution containing 15% FBS, 0.4 mmol/L IBMX, 10 mg/L insulin and 1 μmol/L DEX) 2 d after the cells are completely merged (0 d of differentiation) for culture for 2 d. In the second day of differentiation, replace with differential medium II (DMEM culture solution containing 15% FBS and 10 mg/L insulin) to culture cells. In the 6th day of differentiation and later, replace with corresponding DMEM culture solution containing series I compounds. The control group is the complete culture solution without drugs.
4.1.2.2. Oil Red O Staining
In the 8th day of differentiation, discard the culture solution in the holes, wash with PBS for twice and add the solution containing 10% methanal to fix cells for 2 h. Wash with PBS for twice and stain with 0.5% oil red for 2 h. Wash with PBS for three times, dry at 37, add isopropanol, extract for 10 min and measure the absorbance value of the extract liquor at 492 nm.

PPARγ2-mRNA = assay: RT-PCR of PPARγ2-mRNA expression in 3T3-L1 cells; format: cell-based; settings: during differentiation of preadipocyte 3T3-L1; GAPDH internal reference; FIG. 4
Protocol: 4.1.3 Reverse Transcription
Polymerase chain reaction (RT-PCR) experiment Extract the total RNA of fully differentiated 3T3-L1 cells to be reversely transcribed into cDNA. The primers are designed as follows:
• The length of the target product is 567 bp.
• The length of the target product is 424 bp.
PCR amplification conditions: initial denaturation at 94 for 5 min, then denaturize at 94 for 30 s, anneal at 57 for 40 s, and extend at 72 for 50 s, a total of 30 cycles. Finally extend at 72 for 10 min. Then conduct electrophoresis analysis with 1.5% agarose gel. GAPDH is used as the internal reference to alleviate the error between different samples. Compare the optical density of objective band with the optical density of amplified GAPDH band for analysis.

3T3-L1 cells [3] = assay: Cell proliferation determination with MTT method; format: cell-based; settings: 25, 50, 100 and 200 μmol/L, 2 d; P<0.05 vs blank group; FIG. 1
Protocol: 4.1.1 Cell Proliferation Determination Experiment with MTT Method
Inoculate 3T3-L1 cells in 96-hole cell culture plate. After 2 d of conventional culture, replace with DMEM culture solutions with different concentrations (25, 50, 100 and 200 μmol/L) of Series I compounds. The control group is the culture solution containing 0.1% (V/V) ethanol (96%). 3 complex holes are set for each concentration in each group, processing 2 d. Discard the culture solution in the holes and add 20 μL MTT solution in each hole and culture at 37 for 4 h. Then discard the solution in the hole, add 100 μL DMSO solution in each hole, shake thoroughly and measure the absorbance (A) immediately in the enzyme-linked immunosorbent assay. The wavelength is measured to be 570 nm.

High Fat Diet Rats = assay: Losing weight and depressing blood fat in high-fat diet SD rats; format: in vivo; settings: intragastric once a day for a month, compounds 25 mg/kg, sibutramine 1.0 mg/kg, mean ± SD, n = 10
Protocol: 1. Activity Determination of Losing Weight and Depressing Blood Fat of SD Rats
The experiment refers to the methods in Experimental Methodology of Pharmacology compiled by Xu Shuyun et al, People's Medical Publishing House 2002: 1189-1201, which is slightly modified.
SD rates (weight 80 g-100 g, male, clean grade) are randomly divided into the following groups according to the weight:
Blank control group (normal diet group); model control group (high-fat diet group); sibutramine, 1.0 mg/kg; Group I-1, 25 mg/kg; Group I-2, 25 mg/kg; Group I-3, 25 mg/kg; Group II-1, 25 mg/kg; Group II-2, 25 mg/kg; Group II-3, 25 mg/kg.
Except the blank control group, the other groups are fed with high-fat diet for two months. In the third month, all groups are required for intragastric administration and the blank control group and model control group are given appropriate volume of excipients once a day for a consecutive month. After the administration, exsanguinate and kill the rats, take femoral arterial blood and separate the plasma, and then measure the parameters according to the unified operating procedures in the kit instructions. Remove the fat around abdominal cavity and reproductive organs, weigh its wet weight and determine the body weight.

KM mice = assay: Acute toxicity test of KM mice; format: in vivo
Protocol: 3. Acute Toxicity Test of KM Mice
3.1 I-1 Acute Toxicity Test of Intragastric Administration (ig) for Mice
3.2 I-1 Acute Toxicity Test of Subcutaneous Injection (sc) for Mice
After sc I-1 2000 mg/kg of mice under the conditions of maximum administration capacity and maximum administration concentration, no mice die and the mice toxic symptoms express as decrease in spontaneous activities and often creeping lying without moving. After about 48 h, mice activities begin to increase. Compared with the control group, the weight gain in subsequent observation period is slower.

[4] = cited from earlier work

CCCCCCCC/C=C\CCCCCCCC(=O)Oc1ccc2c(=O)c(-c3ccc(OC)cc3)coc2c1 [I-1, 4′-methoxy-7-O-oleoyl daizeol]
Celiac total fat [1]: 0.595 ± 0.172 g | Epididymal fat [1]: 0.382 ± 0.230 g | MDA (serum oxidative damage indicator) [1]: 0.810 ± 0.162 nmol/L | Mesenteric fat [1]: 0.135 ± 0.047 g | Perirenal fat [1]: 0.078 ± 0.050 g | SOD (serum oxidative damage indicator) [1]: 382.3 ± 200.9 U/ml | Serum insulin concentration INS [1]: 20.26 ± 2.69 | Subcutaneous fat [1]: 0.136 ± 0.065 g | Body weight 1 week after [1]: 39.1 ± 5.2 g | Body weight 2 weeks after [1]: 33.8 ± 3.7 g | Body weight 3 weeks after [1]: 31.5 ± 2.0 g | Body weight before administration [1]: 41.8 ± 5.7 g | FFA [1]: 0.55 ± 0.14 mmol/L | HDL-C [1]: 1.70 ± 0.53 mmol/L | LDL-C [1]: 1.068 ± 0.636 mmol/L | TC [1]: 2.79 ± 0.39 mmol/L | TG [1]: 0.97 ± 0.21 mmol/L | Adipose differentiation of 3T3-L1 cells (oil red stained lipid droplets) (3T3-L1 cells [2]): lipid droplets are significantly decreased | PPARγ2-mRNA expression quantity (PPARγ2-mRNA): increased | Proliferation of preadipocyte 3T3-L1 (MTT, OD value) (3T3-L1 cells [3]): significant inhibition action | Fat index (High Fat Diet Rats): 5.0 ± 1.6 g/100 g | Free fatty acid FFA (High Fat Diet Rats): 606.7 ± 144.7 µmol/L | Total cholesterol TC (High Fat Diet Rats): 1.31 ± 0.27 mmol/L | Triglyceride TG (High Fat Diet Rats): 0.91 ± 0.22 mmol/L | Weight after administration (High Fat Diet Rats): 309 ± 36 g | LD50 (KM mice; intragastric administration (ig)): 2163.8 mg/kg | Mortality (KM mice; subcutaneous injection (sc) 2000 mg/kg, maximum administration capacity and concentration): no mice die

CCCCC/C=C\C/C=C\CCCCCCCC(=O)Oc1ccc2c(=O)c(-c3ccc(OC)cc3)coc2c1 [I-2, 4′-methoxy-7-O-linoleoyl daizeol]
Celiac total fat [1]: 0.329 ± 0.403 g | Epididymal fat [1]: 0.212 ± 0.239 g | MDA (serum oxidative damage indicator) [1]: 1.288 ± 0.145 nmol/L | Mesenteric fat [1]: 0.058 ± 0.101 g | Perirenal fat [1]: 0.059 ± 0.057 g | SOD (serum oxidative damage indicator) [1]: 424.1 ± 192.8 U/ml | Serum insulin concentration INS [1]: 22.32 ± 6.39 | Subcutaneous fat [1]: 0.099 ± 0.071 g | Body weight 1 week after [1]: 39.1 ± 4.1 g | Body weight 2 weeks after [1]: 32.9 ± 5.7 g | Body weight 3 weeks after [1]: 29.5 ± 2.3 g | Body weight before administration [1]: 42.0 ± 4.4 g | FFA [1]: 0.43 ± 0.04 mmol/L | HDL-C [1]: 1.56 ± 0.29 mmol/L | LDL-C [1]: 0.880 ± 0.655 mmol/L | TC [1]: 3.18 ± 0.46 mmol/L | TG [1]: 0.71 ± 0.22 mmol/L | PPARγ2-mRNA expression quantity (PPARγ2-mRNA): increased | Fat index (High Fat Diet Rats): 4.3 ± 1.5 g/100 g | Free fatty acid FFA (High Fat Diet Rats): 603.8 ± 163.5 µmol/L | Total cholesterol TC (High Fat Diet Rats): 1.28 ± 0.26 mmol/L | Triglyceride TG (High Fat Diet Rats): 0.99 ± 0.21 mmol/L | Weight after administration (High Fat Diet Rats): 307 ± 32 g

CCCCCCCCCCCCCCCCCC(=O)Oc1ccc2c(=O)c(-c3ccc(OC)cc3)coc2c1 [I-3, 4′-methoxy-7-O-stearoyl daizeol]
PPARγ2-mRNA expression quantity (PPARγ2-mRNA): significantly decreased | Fat index (High Fat Diet Rats): 5.4 ± 1.2 g/100 g | Free fatty acid FFA (High Fat Diet Rats): 730.2 ± 186.0 µmol/L | Total cholesterol TC (High Fat Diet Rats): 1.57 ± 0.30 mmol/L | Triglyceride TG (High Fat Diet Rats): 1.19 ± 0.30 mmol/L | Weight after administration (High Fat Diet Rats): 320 ± 34 g

CCCCCCCCCCCCCCCC(=O)Oc1ccc2c(=O)c(-c3ccc(OC)cc3)coc2c1 [I-4, 4′-methoxy-7-O-palmityl daizeol]
PPARγ2-mRNA expression quantity (PPARγ2-mRNA): significantly decreased

CCCCCCCC/C=C\CCCCCCCC(=O)Oc1ccc(-c2coc3cc(OC)ccc3c2=O)cc1 [II-1, 7-methoxy-4′-O-oleoyl daizeol]
Fat index (High Fat Diet Rats): 5.6 ± 1.6 g/100 g | Free fatty acid FFA (High Fat Diet Rats): 696.3 ± 205.4 µmol/L | Total cholesterol TC (High Fat Diet Rats): 1.65 ± 0.25 mmol/L | Triglyceride TG (High Fat Diet Rats): 1.01 ± 0.24 mmol/L | Weight after administration (High Fat Diet Rats): 328 ± 32 g

CCCCC/C=C\C/C=C\CCCCCCCC(=O)Oc1ccc(-c2coc3cc(OC)ccc3c2=O)cc1 [II-2, 7-methoxy-4′-O-linoleoyl daizeol]
Fat index (High Fat Diet Rats): 5.1 ± 1.3 g/100 g | Free fatty acid FFA (High Fat Diet Rats): 658.8 ± 201.2 µmol/L | Total cholesterol TC (High Fat Diet Rats): 1.67 ± 0.23 mmol/L | Triglyceride TG (High Fat Diet Rats): 1.03 ± 0.21 mmol/L | Weight after administration (High Fat Diet Rats): 318 ± 28 g

CCCCCCCCCCCCCCCCCC(=O)Oc1ccc(-c2coc3cc(OC)ccc3c2=O)cc1 [II-3, 7-methoxy-4′-O-stearoyl daizeol]
Fat index (High Fat Diet Rats): 6.0 ± 2.1 g/100 g | Free fatty acid FFA (High Fat Diet Rats): 738.1 ± 196.0 µmol/L | Total cholesterol TC (High Fat Diet Rats): 1.71 ± 0.34 mmol/L | Triglyceride TG (High Fat Diet Rats): 1.35 ± 0.35 mmol/L | Weight after administration (High Fat Diet Rats): 352 ± 47 g

CCCCCCCC/C=C\CCCCCCCC(=O)Oc1ccc2c(c1)CC[C@@H]1[C@@H]2CC[C@]2(C)C(=O)CC[C@@H]12 [OE, Oleoyl-estrone]
Half-life ([4]; intravenous injection): 4.17 min | Fraction absorbed in estrone water-soluble ester ([4]; oral administration): 12% | Fraction absorbed in free estrone form ([4]; oral administration): 17%

CC(C)CC(N(C)C)C1(c2ccc(Cl)cc2)CCC1 (centres unmarked) [Sibutramine, reference compound]
Fat index (High Fat Diet Rats): 4.3 ± 1.7 g/100 g | Free fatty acid FFA (High Fat Diet Rats): 609.6 ± 138.3 µmol/L | Total cholesterol TC (High Fat Diet Rats): 1.32 ± 0.29 mmol/L | Triglyceride TG (High Fat Diet Rats): 0.97 ± 0.31 mmol/L | Weight after administration (High Fat Diet Rats): 301 ± 41 g
